Patent US12643871B2, “Aryl formamide compound containing chiral sulfur oxide or salt thereof, preparation method, herbicidal composition and use thereof” (Qingdao Kingagroot Chemical Compound Co., Ltd., priority 2019, dated 2026)

Experiments:
Test in all cases: Weeding effect in post-emergence stage
Assay type in all cases: in vivo
Settings in all cases: 250 g/ha; 2 leaf stage; 15 days after application; fresh weight control rate
[1] = tested on: Echinochloa crusgali
Summary of the method: (§1)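 Two-leaf-stage pot plants, spray-tower application at 500/250/125/60/30/15 g/ha with methyl oleate EC synergist; fresh weight control level (0–5) read at 15 days post-treatment, three replicates averaged.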

[2] = tested on: Setaria viridis
Summary of the method: as §1

[3] = tested on: Digitaria sanguinalis
Summary of the method: as §1

[4] = tested on: Abutilon theophrasti
Summary of the method: as §1

[5] = tested on: Amaranthus retroflexus
Summary of the method: as §1

| Structure (SMILES) | weeding effect in post-emergence stage, activity level (growth control rate), Echinochloa crusgali [1] | weeding effect in post-emergence stage, activity level (growth control rate), Setaria viridis [2] | weeding effect in post-emergence stage, activity level (growth control rate), Digitaria sanguinalis [3] | weeding effect in post-emergence stage, activity level (growth control rate), Abutilon theophrasti [4] | weeding effect in post-emergence stage, activity level (growth control rate), Amaranthus retroflexus [5] |
| --- | --- | --- | --- | --- | --- |
| COc1c(C(=O)Nc2nnc(C)o2)ccc(C(F)(F)F)c1[S@+]([O-])CCCCl [Compound 333] | 5 (Level 5: growth control rate is above 85%) | 5 (Level 5: growth control rate is above 85%) | 5 (Level 5: growth control rate is above 85%) | 5 (Level 5: growth control rate is above 85%) | 5 (Level 5: growth control rate is above 85%) |
| COc1c(C(=O)Nc2nnc(C)o2)ccc(C(F)(F)F)c1[S@+]([O-])CC#N [Compound 337] | 5 (Level 5: growth control rate is above 85%) | 5 (Level 5: growth control rate is above 85%) | 5 (Level 5: growth control rate is above 85%) | 5 (Level 5: growth control rate is above 85%) | 5 (Level 5: growth control rate is above 85%) |
| CCC(C)C[S@@+]([O-])c1c(C(F)(F)F)ccc(C(=O)Nc2nnc(C)o2)c1F (some centres unmarked) [Compound 10] | 5 (Level 5: growth control rate is above 85%) | 5 (Level 5: growth control rate is above 85%) | 5 (Level 5: growth control rate is above 85%) | 5 (Level 5: growth control rate is above 85%) | 5 (Level 5: growth control rate is above 85%) |
| COc1c(C(=O)Nc2nnc(C)o2)ccc(C(F)(F)F)c1[S@@+]([O-])C(F)(C(F)(F)F)C(F)(F)F [Compound 330] | 5 (Level 5: growth control rate is above 85%) | 5 (Level 5: growth control rate is above 85%) | 5 (Level 5: growth control rate is above 85%) | 5 (Level 5: growth control rate is above 85%) | 5 (Level 5: growth control rate is above 85%) |
| COc1c(C(=O)Nc2nnc(C)o2)ccc(C(F)(F)F)c1[S@+]([O-])CCF [Compound 319] | 5 (Level 5: growth control rate is above 85%) | 5 (Level 5: growth control rate is above 85%) | 5 (Level 5: growth control rate is above 85%) | 5 (Level 5: growth control rate is above 85%) | 5 (Level 5: growth control rate is above 85%) |
| Cc1nnc(NC(=O)c2ccc(C(F)(F)F)c([S@+]([O-])CCCC#N)c2F)o1 [Compound 53] | 5 (Level 5: growth control rate is above 85%) | 5 (Level 5: growth control rate is above 85%) | 5 (Level 5: growth control rate is above 85%) | 5 (Level 5: growth control rate is above 85%) | 5 (Level 5: growth control rate is above 85%) |
| Cc1nnc(NC(=O)c2ccc(C(F)(F)F)c([S@+]([O-])CC(C)O)c2F)o1 (some centres unmarked) [Compound 56] | 5 (Level 5: growth control rate is above 85%) | 5 (Level 5: growth control rate is above 85%) | 5 (Level 5: growth control rate is above 85%) | 5 (Level 5: growth control rate is above 85%) | 5 (Level 5: growth control rate is above 85%) |
| CC[S@@+]([O-])c1c(C(F)(F)F)ccc(C(=O)Nc2nnnn2C)c1OC [Compound 445] | 5 (Level 5: growth control rate is above 85%) | 5 (Level 5: growth control rate is above 85%) | 5 (Level 5: growth control rate is above 85%) | 5 (Level 5: growth control rate is above 85%) | 5 (Level 5: growth control rate is above 85%) |
| COc1c(C(=O)Nc2nnc(C)o2)ccc(C(F)(F)F)c1[S@+]([O-])CC(=O)O [Compound 341] | 5 (Level 5: growth control rate is above 85%) | 5 (Level 5: growth control rate is above 85%) | 5 (Level 5: growth control rate is above 85%) | 5 (Level 5: growth control rate is above 85%) | 5 (Level 5: growth control rate is above 85%) |
| CSCC[S@@+]([O-])c1c(C(F)(F)F)ccc(C(=O)Nc2nnc(C)o2)c1F [Compound 204] | 5 (Level 5: growth control rate is above 85%) | 5 (Level 5: growth control rate is above 85%) | 5 (Level 5: growth control rate is above 85%) | 5 (Level 5: growth control rate is above 85%) | 5 (Level 5: growth control rate is above 85%) |
| CCC[S@@+]([O-])c1c(C(F)(F)F)ccc(C(=O)Nc2nnc(C)o2)c1Cl [Compound 543] | 5 (Level 5: growth control rate is above 85%) | 5 (Level 5: growth control rate is above 85%) | 5 (Level 5: growth control rate is above 85%) | 5 (Level 5: growth control rate is above 85%) | 5 (Level 5: growth control rate is above 85%) |
| Cc1nnc(NC(=O)c2ccc(C(F)(F)F)c([S@+]([O-])CC(C)Cl)c2F)o1 (some centres unmarked) [Compound 38] | 5 (Level 5: growth control rate is above 85%) | 5 (Level 5: growth control rate is above 85%) | 5 (Level 5: growth control rate is above 85%) | 5 (Level 5: growth control rate is above 85%) | 5 (Level 5: growth control rate is above 85%) |
| Cc1nnc(NC(=O)c2ccc(C(F)(F)F)c([S@+]([O-])CCCN)c2F)o1 [Compound 57] | 5 (Level 5: growth control rate is above 85%) | 5 (Level 5: growth control rate is above 85%) | 5 (Level 5: growth control rate is above 85%) | 5 (Level 5: growth control rate is above 85%) | 5 (Level 5: growth control rate is above 85%) |
| COc1c(C(=O)Nc2nnc(C)o2)ccc(C(F)(F)F)c1[S@+]([O-])CCC(F)(F)F [Compound 325] | 5 (Level 5: growth control rate is above 85%) | 5 (Level 5: growth control rate is above 85%) | 5 (Level 5: growth control rate is above 85%) | 5 (Level 5: growth control rate is above 85%) | 5 (Level 5: growth control rate is above 85%) |
| CSc1c(C(=O)Nc2nnc(C)o2)ccc(C(F)(F)F)c1[S@+]([O-])CCCCl [Compound 563] | 5 (Level 5: growth control rate is above 85%) | 5 (Level 5: growth control rate is above 85%) | 5 (Level 5: growth control rate is above 85%) | 5 (Level 5: growth control rate is above 85%) | 5 (Level 5: growth control rate is above 85%) |
| COc1c(C(=O)Nc2nnc(C)o2)ccc(C(F)(F)F)c1[S@+]([O-])C1COC1 [Compound 346] | 5 (Level 5: growth control rate is above 85%) | 5 (Level 5: growth control rate is above 85%) | 5 (Level 5: growth control rate is above 85%) | 5 (Level 5: growth control rate is above 85%) | 5 (Level 5: growth control rate is above 85%) |
